Key:
Test in all cases: Minimum Inhibitory Concentration (MIC)
Type in all cases: cell-based
[1] = test system: Propionibacterium acnes ATCC 1953
[2] = test system: Escherichia coli ATCC 8739
[3] = test system: Aspergillus niger ATCC 16404
[4] = test system: Malassezia furfur MTCC 1374
[5] = test system: Candida albicans ATCC 10231
[6] = test system: Staphylococcus aureus ATCC 6538
[7] = test system: Pseudomonas aeruginosa ATCC 15442

Compound | MIC (%) [1] | MIC (%) [2] | MIC (%) [3] | MIC (%) [4] | MIC (%) [5] | MIC (%) [6] | MIC (%) [7]
CCCCCCCC(=O)N(C)CC(=O)O [N-Capryloyl sarcosine, N-Capryloyl Sarcosine] | 0.6% | 0.7% | >1.0% | 0.6% | 0.7% | 0.7% | 0.7%
OCCOc1ccccc1 [phenoxy ethanol, 2-phenoxy ethanol, reference compound] | 0.4% | 0.6% | 0.9% | 0.6% | 0.6% | 0.8% | 0.8%
C=CCCCCCCCCC(=O)N(C)CC(=O)O [N-Undecylenoyl sarcosine, N-Undecylenoyl Sarcosine] | 0.7% | 0.7% | >1.0% | 0.6% | 0.6% | 0.6% | 0.6%

From patent publication US11304886B2, “N-acyl sarcosines as antimicrobials for preservation of home and personal care products” (GALAXY SURFACTANTS LTD., priority 2016, dated 2022)
